Source: patent US20170173134A1 (priority 2011, published 2017)
Like-named read-outs stand apart in the source and are kept apart here.

Experiments:
[1] = tested on: MNU-induced cancerous lesions of the urinary bladder; format: in vivo, Fischer 344 rats
[2] = tested on: MNU-induced bladder cancer; format: in vivo, female Fischer 344 rats
[3] = tested on: bladder cancer induced by MNU; design: species or system Fischer rats; settings: rat, in vivo
[4] = rat, in vivo
[5] = tested on: MNU-induced urinary bladder carcinoma; design: species or system rats; settings: rat, in vivo
[6] = in vivo; cited from earlier work
bladder cancer = settings: human, in vivo; cited from earlier work
[7] = tested on: MNU-induced urinary bladder carcinoma; experiment: Second experiment (Table 5): histological assessment, MNU-induced bladder cancer; format: in vivo, rats
Experimental: The therapeutic effect in urinary bladder cancer in animals was assessed by histological evaluation of the tissues. The criteria for assessing normality of the tissues examined for all the experiments using the same animal model, that is, the experiments reported in Table 4, Table 5, Table 6-A, Table 6-B, Table 6-C and Table 6-D are: normal tissue, flat hyperplasia, papillary hyperplasia.
Flat hyperplasia and papillary hyperplasia are reactive changes of an inflammatory nature, though benign, and their occurrence in the experiments for assessment of new drugs in animals affected with cancer, indicates a reversal of the cancer process to non-cancerous stages.
Metaplasia is defined as the replacement of a normal functional tissue with another tissue with different structure, with loss of function, and, thus, is considered a form of premalignant lesion.
[…] animals (n=50) were used in the experiment. The therapeutic effect was assessed through histological assessment of tissues, and the toxicological effect of the compounds, through assessment of the presence or absence of urinary bleeding also called hematuria.
All the animals in the experiment were subjected to intravesical applications of 1.5 mg/kg of n-methyl-n-nitrosourea (MNU) dissolved in 0.30 mL of sodium citrate, using a catheter, for 7 weeks. One group (control) of 10 animals was given only saline solution ([…]), also intravesically and for an equal period.
The purpose of using n-methyl-n-nitrosourea (MNU) was to experimentally induce immunosuppression and subsequently producing urinary bladder carcinoma. After treatment with MNU, the animals were divided into 05 groups of 10 animals each.
After this procedure, all the 10 animals of each group were sacrificed and their urinary bladders were removed for collection of tissue fragments, which were embedded in paraffin and prepared for histological section, by the usual techniques.
For the histological examinations, sections (2 μm) of the tissue of the urinary bladder were cut using microtome Zeiss, mounted on microscope slides, and stained with hematoxylin-eosin (HE), for subsequent pathology assessment, quantification of cellular changes and comparison between control and treatment groups.

[8] = n = 10
[9] = 10 mg/kg intravesical, 14 weeks; n = 10
[10] = Table 5 experiment, intravesical
[11] = MNU-induced bladder cancer, 10 mg/kg intravesical (topical application), 14 weeks, n = 10

Molecule: Bacillus Calmette-Guérin [BCG]
- Toxicology: Presence of hematuria (rat, in vivo): Positive
- Toxicology: Presence of hematuria, % of animals (rat, in vivo): (100%)
- Toxicology: Presence of hematuria, number of animals (rat, in vivo): n = 10
- Flat hyperplasia, animals ([1]; rat, in vivo): 2(20%)
- High-grade intraepithelial carcinoma (carcinoma in situ-Tis), animals ([1]; rat, in vivo): 2(20%)
- Low-grade intraepithelial carcinoma, animals ([1]; rat, in vivo): 3(30%)
- Normal, animals ([1]; rat, in vivo): 0%
- Papillary hyperplasia, animals ([1]; rat, in vivo): 2(20%)
- Squamous metaplasia, animals ([1]; rat, in vivo): 1(10%)
- Flat hyperplasia, number of animals ([2]; rat, in vivo): 2
- High-grade intraepithelial carcinoma (carcinoma in situ-Tis), number of animals ([2]; rat, in vivo): 3
- Low grade Intraepithelial neoplasia, number of animals ([2]; rat, in vivo): 2
- Normal, number of animals ([2]; rat, in vivo): 0
- Papillary carcinoma (Ta), number of animals ([2]; rat, in vivo): 1
- Papillary hyperplasia, number of animals ([2]; rat, in vivo): 2
- animals with recurrent/refractory malignant lesions ([2]; rat, in vivo): 06
- success rate / responders ([2]; rat, in vivo): 40%
- Flat hyperplasia, number of animals [3]: 1
- High-grade Intraurothelial Neoplasia - Carcinoma in situ (pTis), number of animals [3]: 1
- Low-grade Intraurothelial Neoplasia, number of animals [3]: 1
- Normal, number of animals [3]: 1
- Papillary Carcinoma (pTa), number of animals [3]: 2
- Papillary hyperplasia, number of animals [3]: 3
- Urothelial carcinoma with lamina propria invasion (pT1), number of animals [3]: 2
- recurrent or refractory / malignant lesions [3]: 83%
- recurrent or refractory lesions [3]: 17%
- responders [3]: 83%
- responders (absence of malignant lesions) [3]: 17%
- Toxicology: (Hematuria) [4]: Positive
- Toxicology: (Hematuria), % of animals [4]: (100%)
- degree of hematuria moderate, % of animals [4]: 80%
- degree of hematuria severe, % of animals [4]: 20%
- animals with positive result / positive outcome (histopathology) [5]: 40%
- patients affected by local toxicity (cystitis, macroscopic haematuria) [6]: up to 75%
- patients with unwanted side effects (irritation, haematuria, dysuria) [6]: around 90%
- withdrawal from treatment because of local toxicity [6]: around 15%
- patients with no recurrence of cancer during the follow-up period (bladder cancer): 39%
- rate of recurrence after 5 years (SWOG 8507) (bladder cancer): 60%
- recurrence rate after 5 years (bladder cancer): 34%
- relapse among patients who respond well in the early days (bladder cancer): 30%

Molecule: CO[C@@]12[C@H](COC(N)=O)C3=C(C(=O)C(C)=C(N)C3=O)N1C[C@@H]1N[C@@H]12 [Mitomycin C]
- Flat hyperplasia, animals ([1]; n = 10): 1(10%)
- High-grade intraepithelial carcinoma (carcinoma in situ-Tis), animals ([1]; n = 10): 3(30%)
- Low-grade intraepithelial carcinoma, animals ([1]; n = 10): 6(60%)
- Normal, animals ([1]; n = 10): 0%
- animals that had cancer after treatment [7, 10]: 50%
- Bladder contraction, (%) patients affected [6]: <2%
- Hematuria, (%) patients affected [6]: 10%
- Myelosuppression, (%) patients affected [6]: <10%
- patients with no recurrence of cancer during the follow-up period (bladder cancer): 19%
- recurrence rate after 5 years (bladder cancer): 64%

Molecule: S=P(N1CC1)(N1CC1)N1CC1 [Thiotepa]
- Chemical cystitis, (%) patients affected [6]: 20%
- Myelosuppression, (%) patients affected [6]: 10%

Molecule: Nc1ccn([C@@H]2O[C@H](CO)[C@@H](O)C2(F)F)c(=O)n1 [Gemcitabine]
- Flat hyperplasia, number of animals ([2]; n = 10): 2
- High-grade intraepithelial carcinoma (carcinoma in situ-Tis), number of animals ([2]; n = 10): 4
- Low grade Intraepithelial neoplasia, number of animals ([2]; n = 10): 2
- Papillary hyperplasia, number of animals ([2]; n = 10): 2
- success rate / responders ([2]; rat, in vivo): 40%
- Toxicology: (Hematuria), number of animals in which absent [8]: in 06
- Toxicology: (Hematuria), number of animals positive [8]: +in 04

Molecule: CC(=O)O[C@@]12CO[C@@H]1C[C@H](O)[C@@]1(C)C(=O)[C@H](O)C3=C(C)[C@@H](OC(=O)[C@H](O)[C@@H](NC(=O)OC(C)(C)C)c4ccccc4)C[C@@](O)([C@@H](OC(=O)c4ccccc4)[C@H]21)C3(C)C [Docetaxel]
- Flat hyperplasia, number of animals ([2]; rat, in vivo): 1
- High-grade intraepithelial carcinoma (carcinoma in situ-Tis), number of animals ([2]; rat, in vivo): 3
- Low grade Intraepithelial neoplasia, number of animals ([2]; rat, in vivo): 2
- Normal, number of animals ([2]; rat, in vivo): 1
- Papillary carcinoma (Ta), number of animals ([2]; rat, in vivo): 1
- Papillary hyperplasia, number of animals ([2]; rat, in vivo): 1
- Squamous metaplasia, number of animals ([2]; rat, in vivo): 1
- success rate / responders ([2]; rat, in vivo): 20%
- Toxicology: (Hematuria), number of animals positive [8]: +10

Molecule: COc1cccc2c1C(=O)c1c(O)c3c(c(O)c1C2=O)C[C@@](O)(C(=O)CO)C[C@@H]3O[C@H]1C[C@H](N)[C@H](O)[C@H](C)O1 [Doxorubicin]
- Allergic reaction, (%) patients affected [6]: 1%
- Chemical cystitis, (%) patients affected [6]: 25%

Molecule: CCCCC(=O)OCC(=O)[C@]1(O)Cc2c(O)c3c(c(O)c2[C@@H](O[C@H]2C[C@H](NC(=O)C(F)(F)F)[C@H](O)[C@H](C)O2)C1)C(=O)c1c(OC)cccc1C3=O [Valrubicin, N-trifluoroacetyladriamycin-14-valerate]
- Toxicology: Presence of hematuria, number of animals (Fischer 344, rat, in vivo): N = 10
- Toxicology: Presence of hematuria (n = 10): Positive
- Toxicology: Presence of hematuria, % of animals (n = 10): 100%
- Flat hyperplasia, animals ([1]; n = 10): 1(10%)
- High-grade intraepithelial carcinoma (carcinoma in situ-Tis), animals ([1]; n = 10): 2(20%)
- Low-grade intraepithelial carcinoma, animals ([1]; n = 10): 4(40%)
- Papillary carcinoma (Ta), animals ([1]; n = 10): 1(10%)
- Papillary hyperplasia, animals ([1]; n = 10): 1(10%)
- Squamous metaplasia, animals ([1]; n = 10): 1(10%)
- Toxicology: (Hematuria) [9]: Positive
- Toxicology: (Hematuria), % of animals [9]: (100%)
- High grade intraepithelial neoplasia (carcinoma in situ-Tis), animals [7, 11]: 2 (20%) n (%)
- Low grade intraepithelial neoplasia, animals [7, 11]: 5 (50%) n (%)
- Normal, animals [7, 11]: 1 (10%) n (%)
- Papillary carcinoma (Ta), animals [7, 11]: 1 (10%) n (%)
- Squamous metaplasia, animals [7, 11]: 1 (10%) n (%)
- therapeutic effectiveness / efficacy [7, 10]: 10%
- patients treated in whom results are seen (bladder cancer): 20%
